Laboratory results published in ChEMBL document CHEMBL1201862, “PubChem BioAssay data set” (2004).
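Tested at 5 concentrations; 48 h exposure; 96-well plates; endpoints linearly interpolated, else capped at highest concentration. At the GI50, growth is halved.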 Calls of active or inactive are those of the source. Rule as the data show it: active = GI50 up to about 1.1 µM and inactive = higher.

Legend:
Test in all cases: NCI anticancer screen, dose series, 48 h
U-251 = system: U-251
SNB-19 = system: SNB-19
RXF 393 = system: RXF 393
DU-145 = system: DU-145
EKVX = system: EKVX
SF-295 = system: SF-295
HCT-15 = system: HCT-15
MOLT-4 = system: MOLT-4
COLO 205 = system: COLO 205
NCI-H23 = system: NCI-H23
HCT-116 = system: HCT-116
SF-268 = system: SF-268
HCC 2998 = system: HCC 2998
KM12 = system: KM12
SK-OV-3 = system: SK-OV-3
SK-MEL-5 = system: SK-MEL-5
RPMI-8226 = system: RPMI-8226
HOP-62 = system: HOP-62
NCI-H460 = system: NCI-H460

SMILES | GI50 (U-251) | GI50 (SNB-19) | GI50 (RXF 393) | GI50 (DU-145) | GI50 (EKVX) | GI50 (SF-295) | GI50 (HCT-15) [µM] | GI50 (MOLT-4) | GI50 (COLO 205) | GI50 (NCI-H23) | GI50 (HCT-116) | GI50 (SF-268) | GI50 (HCC 2998) | GI50 (KM12) | GI50 (SK-OV-3) | GI50 (SK-MEL-5) | GI50 (RPMI-8226) | GI50 (HOP-62) | GI50 (NCI-H460)
Cc1ccsc1/C=N/NC1=NCCN1 | > 100 µM (inactive) | > 100 µM (inactive) | > 100 µM (inactive) | > 100 µM (inactive) | > 100 µM (inactive) | 55.3 µM (inactive) | > 100 | > 100 µM (inactive) | > 100 µM (inactive) | > 100 µM (inactive) | > 100 µM (inactive) | > 100 µM (inactive) | > 100 µM (inactive) | > 100 µM (inactive) | > 100 µM (inactive) | > 100 µM (inactive) | > 100 µM (inactive) | > 100 µM (inactive) | –
Cc1ccc(S(=O)ON2CCC(C(=O)O)(c3ccccc3)CC2)cc1 (stereo not given) | > 100 µM (inactive) | > 100 µM (inactive) | > 100 µM (inactive) | > 100 µM (inactive) | 33.3 µM (inactive) | > 100 µM (inactive) | > 100 | > 100 µM (inactive) | > 100 µM (inactive) | > 100 µM (inactive) | > 100 µM (inactive) | > 100 µM (inactive) | > 100 µM (inactive) | > 100 µM (inactive) | > 100 µM (inactive) | > 100 µM (inactive) | > 100 µM (inactive) | > 100 µM (inactive) | > 100 µM (inactive)
COc1ccc(Cc2nc3cc([N+](=O)[O-])ccc3n2C[C@@H]2CCCN3CCCCC23)cc1 (stereo not given in full) | 20.9 µM (inactive) | 19.8 µM (inactive) | 15.4 µM (inactive) | 37.9 µM (inactive) | 31 µM (inactive) | 18 µM (inactive) | 23.4 | 18.6 µM (inactive) | 13.7 µM (inactive) | 29.8 µM (inactive) | 14.7 µM (inactive) | – | 12.6 µM (inactive) | 16.3 µM (inactive) | 20.2 µM (inactive) | 14.8 µM (inactive) | – | 19.3 µM (inactive) | 28.2 µM (inactive)
CCC1(C)C=Cc2c(cc(O)c3c(=O)c4ccccc4n(C)c23)O1 (stereo not given) | > 10 µM (inactive) | > 10 µM (inactive) | > 10 µM (inactive) | > 10 µM (inactive) | > 10 µM (inactive) | > 10 µM (inactive) | > 10 | > 10 µM (inactive) | > 10 µM (inactive) | > 10 µM (inactive) | > 10 µM (inactive) | > 10 µM (inactive) | > 10 µM (inactive) | > 10 µM (inactive) | > 10 µM (inactive) | > 10 µM (inactive) | > 10 µM (inactive) | > 10 µM (inactive) | > 10 µM (inactive)
CNNC1=NS(=O)(=O)c2cc(C(=O)OC)c(Cl)cc2S1 | > 10 µM (inactive) | > 10 µM (inactive) | > 10 µM (inactive) | > 10 µM (inactive) | > 10 µM (inactive) | > 10 µM (inactive) | > 10 | > 10 µM (inactive) | > 10 µM (inactive) | > 10 µM (inactive) | > 10 µM (inactive) | > 10 µM (inactive) | > 10 µM (inactive) | > 10 µM (inactive) | > 10 µM (inactive) | > 10 µM (inactive) | > 10 µM (inactive) | > 10 µM (inactive) | > 10 µM (inactive)
CC12CC(OC(=O)[C@]1(C)O)[C@@H]([C@]1(O)CC[C@H]3[C@@H]4C[C@H]5O[C@]56[C@@H](O)C=CC(=O)[C@]6(C)[C@H]4CC[C@@]31C)C2 (stereo not given in full) | 13.8 µM (inactive) | 40.1 µM (inactive) | 3.01 µM (inactive) | 22.2 µM (inactive) | 2.84 µM (inactive) | 33.7 µM (inactive) | 7.33 | 2.54 µM (inactive) | 3.39 µM (inactive) | 4.08 µM (inactive) | 3.63 µM (inactive) | 5.41 µM (inactive) | 16.2 µM (inactive) | 14.4 µM (inactive) | 34.1 µM (inactive) | 0.785 µM (active) | – | 28.9 µM (inactive) | 12.3 µM (inactive)
